Tests used:
Assay in all cases: KINOMEscan binding assay
Settings in all cases: read-out: % Ctrl @ 10000 nM
MAP3K15 = target: T1, MAP3K15 (Homo sapiens, UniProt Q6ZN16)
T1 construct: T7 phage fusion (most assays) or DNA label after HEK293 expression; purchased DiscoveRx (KINOMEscan, LeadHunter Discovery services); host or cells: T7 phage in E. coli (BL21-derived) or HEK293

MEK1 = MEK1 (Homo sapiens, UniProt Q02750)
SGK = SGK (Homo sapiens, UniProt O00141)
MAP3K2 = MAP3K2 (Homo sapiens, UniProt Q9Y2U5)
MAP3K2, sequence (Q9Y2U5 whole entry): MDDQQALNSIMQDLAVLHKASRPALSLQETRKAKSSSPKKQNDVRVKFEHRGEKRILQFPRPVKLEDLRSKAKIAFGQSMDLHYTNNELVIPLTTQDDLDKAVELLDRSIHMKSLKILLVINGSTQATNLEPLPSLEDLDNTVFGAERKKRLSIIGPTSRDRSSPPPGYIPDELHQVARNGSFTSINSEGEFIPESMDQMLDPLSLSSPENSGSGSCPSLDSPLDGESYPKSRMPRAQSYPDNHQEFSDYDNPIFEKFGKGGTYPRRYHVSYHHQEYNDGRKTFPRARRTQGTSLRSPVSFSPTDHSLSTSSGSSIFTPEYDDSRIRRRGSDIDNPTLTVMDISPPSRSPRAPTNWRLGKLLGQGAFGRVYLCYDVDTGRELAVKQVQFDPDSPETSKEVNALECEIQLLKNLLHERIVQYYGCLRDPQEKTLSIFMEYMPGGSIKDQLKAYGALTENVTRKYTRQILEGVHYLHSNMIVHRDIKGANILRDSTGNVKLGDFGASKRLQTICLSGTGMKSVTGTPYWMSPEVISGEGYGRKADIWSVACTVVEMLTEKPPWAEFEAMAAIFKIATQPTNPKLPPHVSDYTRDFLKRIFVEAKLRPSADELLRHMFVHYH

[1] = target: ABL1 (F317I) phosphorylated (Homo sapiens, UniProt P00519, F317I)
ALK (L1196M) = ALK (L1196M) (Homo sapiens, UniProt Q9UM73, L1196M)
ERK4 = ERK4 (Homo sapiens, UniProt P31152)
[2] = target: ABL1 (Y253F) phosphorylated (Homo sapiens, UniProt P00519, Y253F)
[3] = target: RSK3 Kin.Dom.1-N-terminal (Homo sapiens, UniProt Q15349)
[4] = target: T2, TYK2 JH2domain-pseudokinase (Homo sapiens, UniProt P29597)
T2 construct: JH2domain-pseudokinase; purchased DiscoveRx (KINOMEscan, LeadHunter Discovery services)

[5] = target: EGFR (L747-T751del, Sins) (Homo sapiens, UniProt P00533, DEL747-750/T751S)
BTK = BTK (Homo sapiens, UniProt Q06187)
AXL = AXL (Homo sapiens, UniProt P30530)
BRAF = BRAF (Homo sapiens, UniProt P15056)
MKNK2 = MKNK2 (Homo sapiens, UniProt Q9HBH9)
FLT3 = FLT3 (Homo sapiens, UniProt P36888)
KIT (L576P) = KIT (L576P) (Homo sapiens, UniProt P10721, L576P)
p38-delta = p38-delta (Homo sapiens, UniProt O15264)
p38-delta, sequence (O15264 whole entry): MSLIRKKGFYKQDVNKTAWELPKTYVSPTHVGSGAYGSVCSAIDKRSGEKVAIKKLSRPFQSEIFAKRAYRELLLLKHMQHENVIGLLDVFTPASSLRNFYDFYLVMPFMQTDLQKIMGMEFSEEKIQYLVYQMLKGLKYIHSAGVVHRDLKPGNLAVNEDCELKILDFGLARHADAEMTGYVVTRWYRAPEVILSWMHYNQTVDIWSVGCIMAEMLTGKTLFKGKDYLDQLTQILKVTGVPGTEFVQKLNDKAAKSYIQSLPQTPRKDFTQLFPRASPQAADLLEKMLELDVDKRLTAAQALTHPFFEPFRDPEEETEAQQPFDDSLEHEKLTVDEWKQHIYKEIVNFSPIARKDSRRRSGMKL

PFTK1 = PFTK1 (Homo sapiens, UniProt O94921)
GCN2 (Kin.Dom.2, S808G) = GCN2 (Kin.Dom.2, S808G) (Homo sapiens, UniProt Q9P2K8, S808G)
PIK3CA = PIK3CA (Homo sapiens, UniProt P42336)
CSNK1A1L = CSNK1A1L (Homo sapiens, UniProt Q8N752)
STK35 = STK35 (Homo sapiens, UniProt Q8TDR2)
YANK2 = target: T3, YANK2 (Homo sapiens, UniProt Q9NY57)
T3 construct: purchased DiscoveRx (KINOMEscan, LeadHunter Discovery services)

TRKA = TRKA (Homo sapiens, UniProt P04629)
RIPK2 = RIPK2 (Homo sapiens, UniProt O43353)
TESK1 = TESK1 (Homo sapiens, UniProt Q15569)
PIP5K2C = PIP5K2C (Homo sapiens, UniProt Q8TBX8)
TRKC = TRKC (Homo sapiens, UniProt Q16288)
CSNK1G3 = CSNK1G3 (Homo sapiens, UniProt Q9Y6M4)
DLK = DLK (Homo sapiens, UniProt Q12852)
LATS1 = LATS1 (Homo sapiens, UniProt O95835)
MAST1 = MAST1 (Homo sapiens, UniProt Q9Y2H9)
MAST1, sequence (Q9Y2H9 whole entry): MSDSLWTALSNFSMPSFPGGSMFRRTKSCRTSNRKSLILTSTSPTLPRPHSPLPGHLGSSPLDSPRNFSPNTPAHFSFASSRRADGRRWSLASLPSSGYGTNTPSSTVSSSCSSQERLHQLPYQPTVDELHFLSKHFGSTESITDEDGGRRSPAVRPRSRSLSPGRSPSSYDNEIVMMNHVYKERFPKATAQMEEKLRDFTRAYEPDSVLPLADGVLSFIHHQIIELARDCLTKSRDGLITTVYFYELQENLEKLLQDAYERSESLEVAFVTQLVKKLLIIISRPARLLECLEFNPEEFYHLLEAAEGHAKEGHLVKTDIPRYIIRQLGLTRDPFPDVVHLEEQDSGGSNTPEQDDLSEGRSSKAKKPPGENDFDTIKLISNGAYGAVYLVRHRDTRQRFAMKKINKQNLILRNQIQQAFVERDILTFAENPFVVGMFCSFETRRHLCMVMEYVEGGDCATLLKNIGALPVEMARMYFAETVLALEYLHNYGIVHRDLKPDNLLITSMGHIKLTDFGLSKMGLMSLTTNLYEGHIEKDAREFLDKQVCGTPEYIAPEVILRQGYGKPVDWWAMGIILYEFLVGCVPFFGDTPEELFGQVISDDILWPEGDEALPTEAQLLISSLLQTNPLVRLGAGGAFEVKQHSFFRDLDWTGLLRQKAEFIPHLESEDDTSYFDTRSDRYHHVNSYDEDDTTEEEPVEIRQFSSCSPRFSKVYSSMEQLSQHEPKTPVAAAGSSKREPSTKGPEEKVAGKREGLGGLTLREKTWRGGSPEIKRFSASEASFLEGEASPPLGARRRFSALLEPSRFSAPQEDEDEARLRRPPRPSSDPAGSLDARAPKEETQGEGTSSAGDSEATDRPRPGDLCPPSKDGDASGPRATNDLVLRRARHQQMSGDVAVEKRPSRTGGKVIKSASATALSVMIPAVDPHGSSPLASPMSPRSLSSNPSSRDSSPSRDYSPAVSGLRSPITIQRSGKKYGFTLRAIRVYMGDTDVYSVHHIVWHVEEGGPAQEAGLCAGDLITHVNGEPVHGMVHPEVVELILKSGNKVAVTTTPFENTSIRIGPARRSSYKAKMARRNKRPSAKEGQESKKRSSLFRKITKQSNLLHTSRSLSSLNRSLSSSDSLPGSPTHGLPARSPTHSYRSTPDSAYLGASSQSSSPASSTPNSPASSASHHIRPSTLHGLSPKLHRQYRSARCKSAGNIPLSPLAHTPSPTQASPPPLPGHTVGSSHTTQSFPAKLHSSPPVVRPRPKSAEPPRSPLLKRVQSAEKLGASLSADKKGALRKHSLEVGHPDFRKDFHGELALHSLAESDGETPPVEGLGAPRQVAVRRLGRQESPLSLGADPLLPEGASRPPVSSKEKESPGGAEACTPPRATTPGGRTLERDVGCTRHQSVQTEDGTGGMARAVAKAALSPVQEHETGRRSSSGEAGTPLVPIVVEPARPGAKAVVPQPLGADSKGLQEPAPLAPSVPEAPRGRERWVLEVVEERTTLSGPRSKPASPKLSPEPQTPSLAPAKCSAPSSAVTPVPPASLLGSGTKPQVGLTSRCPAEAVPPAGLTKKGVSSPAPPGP

KIT (V559D) = KIT (V559D) (Homo sapiens, UniProt P10721, V559D)
PRKD2 = PRKD2 (Homo sapiens, UniProt Q9BZL6)
MARK2 = MARK2 (Homo sapiens, UniProt Q7KZI7)
SRPK3 = SRPK3 (Homo sapiens, UniProt Q9UPE1)
SRPK3, sequence (Q9UPE1 whole entry): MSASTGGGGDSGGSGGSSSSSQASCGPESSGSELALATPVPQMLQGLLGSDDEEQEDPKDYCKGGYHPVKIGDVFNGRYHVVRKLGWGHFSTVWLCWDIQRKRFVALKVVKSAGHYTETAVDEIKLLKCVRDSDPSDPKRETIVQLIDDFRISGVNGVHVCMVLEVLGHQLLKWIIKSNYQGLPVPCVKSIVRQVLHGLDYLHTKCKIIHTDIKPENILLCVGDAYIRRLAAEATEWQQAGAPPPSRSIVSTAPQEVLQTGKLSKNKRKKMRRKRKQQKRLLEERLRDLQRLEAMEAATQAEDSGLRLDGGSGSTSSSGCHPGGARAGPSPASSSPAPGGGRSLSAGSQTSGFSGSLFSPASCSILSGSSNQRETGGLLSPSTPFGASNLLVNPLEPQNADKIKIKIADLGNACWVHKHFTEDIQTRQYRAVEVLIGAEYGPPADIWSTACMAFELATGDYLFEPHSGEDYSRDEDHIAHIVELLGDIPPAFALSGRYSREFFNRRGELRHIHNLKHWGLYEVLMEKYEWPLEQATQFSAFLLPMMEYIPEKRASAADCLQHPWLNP

MLK3 = MLK3 (Homo sapiens, UniProt Q16584)
CDC2L5 = CDC2L5 (Homo sapiens, UniProt Q14004)
CDC2L5, sequence (Q14004 whole entry): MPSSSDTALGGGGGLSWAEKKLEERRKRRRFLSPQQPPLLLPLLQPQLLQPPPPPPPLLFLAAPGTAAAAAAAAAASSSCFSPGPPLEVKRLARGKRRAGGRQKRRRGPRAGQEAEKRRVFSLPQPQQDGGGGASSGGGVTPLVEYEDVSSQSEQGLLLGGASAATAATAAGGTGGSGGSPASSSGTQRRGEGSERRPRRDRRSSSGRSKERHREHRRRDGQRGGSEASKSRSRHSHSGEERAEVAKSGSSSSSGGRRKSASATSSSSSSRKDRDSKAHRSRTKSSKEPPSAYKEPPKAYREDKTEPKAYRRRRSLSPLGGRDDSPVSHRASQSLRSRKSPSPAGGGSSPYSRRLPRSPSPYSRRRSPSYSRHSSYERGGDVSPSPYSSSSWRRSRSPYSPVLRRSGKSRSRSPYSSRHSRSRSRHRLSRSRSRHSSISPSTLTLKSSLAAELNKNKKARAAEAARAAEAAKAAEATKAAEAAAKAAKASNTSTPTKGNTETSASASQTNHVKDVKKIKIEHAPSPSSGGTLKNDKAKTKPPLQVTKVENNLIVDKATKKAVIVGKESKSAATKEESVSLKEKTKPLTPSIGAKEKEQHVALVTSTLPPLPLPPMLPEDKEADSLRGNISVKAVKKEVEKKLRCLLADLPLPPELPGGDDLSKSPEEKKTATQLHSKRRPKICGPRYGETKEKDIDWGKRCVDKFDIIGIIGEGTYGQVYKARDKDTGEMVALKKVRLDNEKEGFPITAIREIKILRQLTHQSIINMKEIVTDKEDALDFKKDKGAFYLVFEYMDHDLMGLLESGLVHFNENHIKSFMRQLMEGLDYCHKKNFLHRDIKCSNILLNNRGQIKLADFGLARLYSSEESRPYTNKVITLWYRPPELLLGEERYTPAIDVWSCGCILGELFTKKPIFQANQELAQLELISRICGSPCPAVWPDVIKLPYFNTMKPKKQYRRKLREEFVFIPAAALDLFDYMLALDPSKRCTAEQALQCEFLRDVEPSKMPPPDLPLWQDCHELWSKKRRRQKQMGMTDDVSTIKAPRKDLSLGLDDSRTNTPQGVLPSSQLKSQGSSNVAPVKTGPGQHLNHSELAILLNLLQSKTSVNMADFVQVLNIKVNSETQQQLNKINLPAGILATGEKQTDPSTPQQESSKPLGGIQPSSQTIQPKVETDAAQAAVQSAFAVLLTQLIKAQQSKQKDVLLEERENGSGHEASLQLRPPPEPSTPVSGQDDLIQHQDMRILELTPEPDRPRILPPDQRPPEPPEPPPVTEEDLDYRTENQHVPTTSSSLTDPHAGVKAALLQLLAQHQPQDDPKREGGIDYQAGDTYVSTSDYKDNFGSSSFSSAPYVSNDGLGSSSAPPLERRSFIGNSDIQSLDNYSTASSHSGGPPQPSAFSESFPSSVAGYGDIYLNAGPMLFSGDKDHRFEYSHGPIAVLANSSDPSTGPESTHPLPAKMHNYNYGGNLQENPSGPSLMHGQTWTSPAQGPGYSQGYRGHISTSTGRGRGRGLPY

STK39 = STK39 (Homo sapiens, UniProt Q9UEW8)

SGK, sequence (O00141 whole entry): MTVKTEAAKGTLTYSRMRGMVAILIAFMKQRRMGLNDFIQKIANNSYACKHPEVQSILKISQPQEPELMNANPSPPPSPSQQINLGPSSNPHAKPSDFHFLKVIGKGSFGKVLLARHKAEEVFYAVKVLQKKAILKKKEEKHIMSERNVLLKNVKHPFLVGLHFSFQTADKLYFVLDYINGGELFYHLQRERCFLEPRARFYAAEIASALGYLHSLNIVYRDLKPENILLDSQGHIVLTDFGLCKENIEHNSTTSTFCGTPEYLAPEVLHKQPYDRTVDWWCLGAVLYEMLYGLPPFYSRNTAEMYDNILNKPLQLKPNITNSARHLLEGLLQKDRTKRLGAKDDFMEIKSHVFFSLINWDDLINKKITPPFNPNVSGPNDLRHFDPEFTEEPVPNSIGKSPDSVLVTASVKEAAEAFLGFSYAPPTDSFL

With `Nc1ncc(-c2nc3ccccc3o2)c(-c2ccncc2)n1` [Comparative Compound 324, 5-(1,3-benzoxazol-2-yl)-4-(pyridine-4-yl)pyrimidin-2-amine] the remaining binding at 10 µM (MAP3K15) was 100%, the remaining binding at 10 µM (MEK1) was 97% and the remaining binding at 10 µM (SGK) was 100%. For the same compound, the remaining binding at 10 µM (MAP3K2) was 87%, the remaining binding at 10 µM [1] was 100% and the remaining binding at 10 µM (ALK (L1196M)) was 100%. It also gave a remaining binding at 10 µM (ERK4) of 90%, a remaining binding at 10 µM [2] of 78% and a remaining binding at 10 µM [3] of 100%. It also gave a remaining binding at 10 µM [4] of 66%, a remaining binding at 10 µM [5] of 54% and a remaining binding at 10 µM (BTK) of 92%. It also gave a remaining binding at 10 µM (AXL) of 100%, a remaining binding at 10 µM (BRAF) of 77% and a remaining binding at 10 µM (MKNK2) of 70%. For the same compound, the remaining binding at 10 µM (FLT3) was 100%, the remaining binding at 10 µM (KIT (L576P)) was 57% and the remaining binding at 10 µM (p38-delta) was 90%. It also gave a remaining binding at 10 µM (PFTK1) of 96%, a remaining binding at 10 µM (GCN2 (Kin.Dom.2, S808G)) of 98% and a remaining binding at 10 µM (PIK3CA) of 100%. It also gave a remaining binding at 10 µM (CSNK1A1L) of 81%, a remaining binding at 10 µM (STK35) of 100% and a remaining binding at 10 µM (YANK2) of 70%. For the same compound, the remaining binding at 10 µM (TRKA) was 77%, the remaining binding at 10 µM (RIPK2) was 85% and the remaining binding at 10 µM (TESK1) was 88%. The remaining binding at 10 µM (PIP5K2C) was 72%, the remaining binding at 10 µM (TRKC) was 81% and the remaining binding at 10 µM (CSNK1G3) was 83%. For the same compound, the remaining binding at 10 µM (DLK) was 91%, the remaining binding at 10 µM (LATS1) was 100% and the remaining binding at 10 µM (MAST1) was 86%. For the same compound, the remaining binding at 10 µM (KIT (V559D)) was 69%, the remaining binding at 10 µM (PRKD2) was 90% and the remaining binding at 10 µM (MARK2) was 91%. The remaining binding at 10 µM (SRPK3) was 99%, the remaining binding at 10 µM (MLK3) was 83% and the remaining binding at 10 µM (CDC2L5) was 93%. It also gave a remaining binding at 10 µM (STK39) of 100%.
`CNc1c(C(N)=O)c2ccccn2c1C(=O)c1ccc(F)cc1` [Compound A, 2-methyl-amino-3-[(4-fluorophenyl)carbonyl]indolizine-1-carboxamide] gave a remaining binding at 10 µM (MAP3K15) of 94%, a remaining binding at 10 µM (MEK1) of 39% and a remaining binding at 10 µM (SGK) of 100%. For the same compound, the remaining binding at 10 µM (MAP3K2) was 73%, the remaining binding at 10 µM [1] was 88% and the remaining binding at 10 µM (ALK (L1196M)) was 100%. For the same compound, the remaining binding at 10 µM (ERK4) was 78%, the remaining binding at 10 µM [2] was 50% and the remaining binding at 10 µM [3] was 83%. The remaining binding at 10 µM [4] was 86%, the remaining binding at 10 µM [5] was 12% and the remaining binding at 10 µM (BTK) was 88%. The remaining binding at 10 µM (AXL) was 95%, the remaining binding at 10 µM (BRAF) was 93% and the remaining binding at 10 µM (MKNK2) was 58%. It also gave a remaining binding at 10 µM (FLT3) of 96%, a remaining binding at 10 µM (KIT (L576P)) of 29% and a remaining binding at 10 µM (p38-delta) of 85%. For the same compound, the remaining binding at 10 µM (PFTK1) was 77%, the remaining binding at 10 µM (GCN2 (Kin.Dom.2, S808G)) was 66% and the remaining binding at 10 µM (PIK3CA) was 89%. The remaining binding at 10 µM (CSNK1A1L) was 1.2%, the remaining binding at 10 µM (STK35) was 100% and the remaining binding at 10 µM (YANK2) was 78%. For the same compound, the remaining binding at 10 µM (TRKA) was 86%, the remaining binding at 10 µM (RIPK2) was 67% and the remaining binding at 10 µM (TESK1) was 90%. The remaining binding at 10 µM (PIP5K2C) was 79%, the remaining binding at 10 µM (TRKC) was 75% and the remaining binding at 10 µM (CSNK1G3) was 85%. It also gave a remaining binding at 10 µM (DLK) of 84%, a remaining binding at 10 µM (LATS1) of 93% and a remaining binding at 10 µM (MAST1) of 75%. It also gave a remaining binding at 10 µM (KIT (V559D)) of 19%, a remaining binding at 10 µM (PRKD2) of 68% and a remaining binding at 10 µM (MARK2) of 85%. The remaining binding at 10 µM (SRPK3) was 92%, the remaining binding at 10 µM (MLK3) was 83% and the remaining binding at 10 µM (CDC2L5) was 89%. The remaining binding at 10 µM (STK39) was 81%.

— patent publication US10815230B2, “Casein kinase 1 delta inhibitor” (ELECTROPHORETICS LIMITED, priority 2015, dated 2020)
